Numbers after ± are expanded uncertainties.
Experiment: mn = molality of the nth substance listed, in mol/kg
Details: 101 kPa, Liquid; for viscosity: Capillary tube (Ostwald / Ubbelohde) method; for speed of sound: Frequency=3 MHz, Linear variable-path acoustic interferometer; for mass density: Pycnometric method

**Q.** What does the source list for N[C@@H](Cc1c[nH]cn1)C(=O)O [L-histidine] + O?
**A.** viscosity (293.15 K, m1 = 0.0199): 1.014 ± 0.1 mPa·s; viscosity (293.15 K, m1 = 0.0399): 1.024 ± 0.1 mPa·s; viscosity (293.15 K, m1 = 0.0599): 1.035 ± 0.1 mPa·s; viscosity (293.15 K, m1 = 0.0799): 1.045 ± 0.1 mPa·s; viscosity (293.15 K, m1 = 0.1): 1.056 ± 0.11 mPa·s; viscosity (293.15 K, m1 = 0.1199): 1.066 ± 0.11 mPa·s; viscosity (293.15 K, m1 = 0.14): 1.077 ± 0.11 mPa·s; viscosity (293.15 K, m1 = 0.16): 1.087 ± 0.11 mPa·s; speed of sound (293.15 K, m1 = 0.0199): 1488.1 ± 10 m/s; speed of sound (293.15 K, m1 = 0.0399): 1491.8 ± 10 m/s; speed of sound (293.15 K, m1 = 0.0599): 1494.5 ± 10 m/s; speed of sound (293.15 K, m1 = 0.0799): 1496.5 ± 10 m/s; speed of sound (293.15 K, m1 = 0.1): 1497.4 ± 10 m/s; speed of sound (293.15 K, m1 = 0.1199): 1497.5 ± 10 m/s; speed of sound (293.15 K, m1 = 0.14): 1496.5 ± 10 m/s; speed of sound (293.15 K, m1 = 0.16): 1494.8 ± 10 m/s; mass density (293.15 K, m1 = 0.0199): 999.39 ± 6 kg/m3; mass density (293.15 K, m1 = 0.0399): 1000.54 ± 6 kg/m3; mass density (293.15 K, m1 = 0.0599): 1001.69 ± 6 kg/m3; mass density (293.15 K, m1 = 0.0799): 1002.84 ± 6 kg/m3; mass density (293.15 K, m1 = 0.1): 1003.99 ± 6 kg/m3; mass density (293.15 K, m1 = 0.1199): 1005.14 ± 6 kg/m3; mass density (293.15 K, m1 = 0.14): 1006.29 ± 6 kg/m3; mass density (293.15 K, m1 = 0.16): 1007.44 ± 6 kg/m3; viscosity (298.15 K, m1 = 0.0199): 0.9001 ± 0.09 mPa·s; viscosity (298.15 K, m1 = 0.0399): 0.9083 ± 0.091 mPa·s; viscosity (298.15 K, m1 = 0.0599): 0.9164 ± 0.092 mPa·s; viscosity (298.15 K, m1 = 0.0799): 0.925 ± 0.093 mPa·s; viscosity (298.15 K, m1 = 0.1): 0.933 ± 0.094 mPa·s; viscosity (298.15 K, m1 = 0.1199): 0.9411 ± 0.094 mPa·s; viscosity (298.15 K, m1 = 0.14): 0.95 ± 0.095 mPa·s; viscosity (298.15 K, m1 = 0.16): 0.9583 ± 0.096 mPa·s; speed of sound (298.15 K, m1 = 0.0199): 1501.1 ± 10 m/s; speed of sound (298.15 K, m1 = 0.0399): 1504.4 ± 10 m/s; speed of sound (298.15 K, m1 = 0.0599): 1506.8 ± 10 m/s; speed of sound (298.15 K, m1 = 0.0799): 1508.1 ± 10 m/s; speed of sound (298.15 K, m1 = 0.1): 1508.6 ± 10 m/s; speed of sound (298.15 K, m1 = 0.1199): 1507.9 ± 10 m/s; speed of sound (298.15 K, m1 = 0.14): 1506.5 ± 10 m/s; speed of sound (298.15 K, m1 = 0.16): 1504.2 ± 10 m/s; mass density (298.15 K, m1 = 0.0199): 998.22 ± 6 kg/m3; mass density (298.15 K, m1 = 0.0399): 999.37 ± 6 kg/m3; mass density (298.15 K, m1 = 0.0599): 1000.52 ± 6 kg/m3; mass density (298.15 K, m1 = 0.0799): 1001.68 ± 6 kg/m3; mass density (298.15 K, m1 = 0.1): 1002.83 ± 6 kg/m3; mass density (298.15 K, m1 = 0.1199): 1003.98 ± 6 kg/m3; mass density (298.15 K, m1 = 0.14): 1005.13 ± 6 kg/m3; mass density (298.15 K, m1 = 0.16): 1006.28 ± 6 kg/m3; viscosity (303.15 K, m1 = 0.0199): 0.8052 ± 0.081 mPa·s; viscosity (303.15 K, m1 = 0.0399): 0.8119 ± 0.081 mPa·s; viscosity (303.15 K, m1 = 0.0599): 0.8187 ± 0.082 mPa·s; viscosity (303.15 K, m1 = 0.0799): 0.8256 ± 0.083 mPa·s; viscosity (303.15 K, m1 = 0.1): 0.8318 ± 0.083 mPa·s; viscosity (303.15 K, m1 = 0.1199): 0.8383 ± 0.084 mPa·s; viscosity (303.15 K, m1 = 0.14): 0.8451 ± 0.085 mPa·s; viscosity (303.15 K, m1 = 0.16): 0.8513 ± 0.085 mPa·s; speed of sound (303.15 K, m1 = 0.0199): 1512.3 ± 10 m/s; speed of sound (303.15 K, m1 = 0.0399): 1515.1 ± 10 m/s; speed of sound (303.15 K, m1 = 0.0599): 1517 ± 10 m/s; speed of sound (303.15 K, m1 = 0.0799): 1517.7 ± 10 m/s; speed of sound (303.15 K, m1 = 0.1): 1518 ± 10 m/s; speed of sound (303.15 K, m1 = 0.1199): 1516.4 ± 10 m/s; speed of sound (303.15 K, m1 = 0.14): 1514.2 ± 10 m/s; speed of sound (303.15 K, m1 = 0.16): 1511.5 ± 10 m/s; mass density (303.15 K, m1 = 0.0199): 996.83 ± 6 kg/m3; mass density (303.15 K, m1 = 0.0399): 997.99 ± 6 kg/m3; mass density (303.15 K, m1 = 0.0599): 999.14 ± 6 kg/m3; mass density (303.15 K, m1 = 0.0799): 1000.3 ± 6 kg/m3; mass density (303.15 K, m1 = 0.1): 1001.46 ± 6 kg/m3; mass density (303.15 K, m1 = 0.1199): 1002.61 ± 6 kg/m3; mass density (303.15 K, m1 = 0.14): 1003.76 ± 6 kg/m3; mass density (303.15 K, m1 = 0.16): 1004.91 ± 6 kg/m3; viscosity (308.15 K, m1 = 0.0199): 0.7255 ± 0.073 mPa·s; viscosity (308.15 K, m1 = 0.0399): 0.7309 ± 0.073 mPa·s; viscosity (308.15 K, m1 = 0.0599): 0.7362 ± 0.074 mPa·s; viscosity (308.15 K, m1 = 0.0799): 0.7415 ± 0.074 mPa·s; viscosity (308.15 K, m1 = 0.1): 0.7464 ± 0.075 mPa·s; viscosity (308.15 K, m1 = 0.1199): 0.7515 ± 0.075 mPa·s; viscosity (308.15 K, m1 = 0.14): 0.7568 ± 0.076 mPa·s; viscosity (308.15 K, m1 = 0.16): 0.762 ± 0.076 mPa·s; speed of sound (308.15 K, m1 = 0.0199): 1523.3 ± 10 m/s; speed of sound (308.15 K, m1 = 0.0399): 1525.7 ± 10 m/s; speed of sound (308.15 K, m1 = 0.0599): 1527.1 ± 10 m/s; speed of sound (308.15 K, m1 = 0.0799): 1527.6 ± 10 m/s; speed of sound (308.15 K, m1 = 0.1): 1527.2 ± 10 m/s; speed of sound (308.15 K, m1 = 0.1199): 1525.5 ± 10 m/s; speed of sound (308.15 K, m1 = 0.14): 1522.8 ± 10 m/s; speed of sound (308.15 K, m1 = 0.16): 1519.8 ± 10 m/s; mass density (308.15 K, m1 = 0.0199): 995.23 ± 6 kg/m3; mass density (308.15 K, m1 = 0.0399): 996.39 ± 6 kg/m3; mass density (308.15 K, m1 = 0.0599): 997.55 ± 6 kg/m3; mass density (308.15 K, m1 = 0.0799): 998.71 ± 6 kg/m3; mass density (308.15 K, m1 = 0.1): 999.87 ± 6 kg/m3; mass density (308.15 K, m1 = 0.1199): 1001.02 ± 6 kg/m3; mass density (308.15 K, m1 = 0.14): 1002.19 ± 6 kg/m3; mass density (308.15 K, m1 = 0.16): 1003.34 ± 6 kg/m3; viscosity (313.15 K, m1 = 0.0199): 0.6581 ± 0.066 mPa·s; viscosity (313.15 K, m1 = 0.0399): 0.6623 ± 0.066 mPa·s; viscosity (313.15 K, m1 = 0.0599): 0.6665 ± 0.067 mPa·s; viscosity (313.15 K, m1 = 0.0799): 0.6705 ± 0.067 mPa·s; viscosity (313.15 K, m1 = 0.1): 0.6745 ± 0.068 mPa·s; viscosity (313.15 K, m1 = 0.1199): 0.6788 ± 0.068 mPa·s; viscosity (313.15 K, m1 = 0.14): 0.683 ± 0.068 mPa·s; viscosity (313.15 K, m1 = 0.16): 0.6869 ± 0.069 mPa·s; speed of sound (313.15 K, m1 = 0.0199): 1529.9 ± 10 m/s; speed of sound (313.15 K, m1 = 0.0399): 1531.9 ± 10 m/s; speed of sound (313.15 K, m1 = 0.0599): 1532.8 ± 10 m/s; speed of sound (313.15 K, m1 = 0.0799): 1533 ± 10 m/s; speed of sound (313.15 K, m1 = 0.1): 1532.2 ± 10 m/s; speed of sound (313.15 K, m1 = 0.1199): 1530.3 ± 10 m/s; speed of sound (313.15 K, m1 = 0.14): 1527.3 ± 10 m/s; speed of sound (313.15 K, m1 = 0.16): 1523.7 ± 10 m/s; mass density (313.15 K, m1 = 0.0199): 993.41 ± 6 kg/m3; mass density (313.15 K, m1 = 0.0399): 994.58 ± 6 kg/m3; mass density (313.15 K, m1 = 0.0599): 995.74 ± 6 kg/m3; mass density (313.15 K, m1 = 0.0799): 996.91 ± 6 kg/m3; mass density (313.15 K, m1 = 0.1): 998.08 ± 6 kg/m3; mass density (313.15 K, m1 = 0.1199): 999.23 ± 6 kg/m3; mass density (313.15 K, m1 = 0.14): 1000.4 ± 6 kg/m3; mass density (313.15 K, m1 = 0.16): 1001.56 ± 6 kg/m3; viscosity (318.15 K, m1 = 0.0199): 0.6018 ± 0.06 mPa·s; viscosity (318.15 K, m1 = 0.0399): 0.605 ± 0.061 mPa·s; viscosity (318.15 K, m1 = 0.0599): 0.6082 ± 0.061 mPa·s; viscosity (318.15 K, m1 = 0.0799): 0.6114 ± 0.061 mPa·s; viscosity (318.15 K, m1 = 0.1): 0.6148 ± 0.062 mPa·s; viscosity (318.15 K, m1 = 0.1199): 0.6175 ± 0.062 mPa·s; viscosity (318.15 K, m1 = 0.14): 0.6208 ± 0.062 mPa·s; viscosity (318.15 K, m1 = 0.16): 0.6238 ± 0.062 mPa·s; speed of sound (318.15 K, m1 = 0.0199): 1535.7 ± 10 m/s; speed of sound (318.15 K, m1 = 0.0399): 1537.3 ± 10 m/s; speed of sound (318.15 K, m1 = 0.0599): 1538 ± 10 m/s; speed of sound (318.15 K, m1 = 0.0799): 1537.6 ± 10 m/s; speed of sound (318.15 K, m1 = 0.1): 1536.3 ± 10 m/s; speed of sound (318.15 K, m1 = 0.1199): 1534.1 ± 10 m/s; speed of sound (318.15 K, m1 = 0.14): 1530.5 ± 10 m/s; speed of sound (318.15 K, m1 = 0.16): 1526.5 ± 10 m/s; mass density (318.15 K, m1 = 0.0199): 991.41 ± 6 kg/m3; mass density (318.15 K, m1 = 0.0399): 992.58 ± 6 kg/m3; mass density (318.15 K, m1 = 0.0599): 993.75 ± 6 kg/m3; mass density (318.15 K, m1 = 0.0799): 994.92 ± 6 kg/m3; mass density (318.15 K, m1 = 0.1): 996.1 ± 6 kg/m3; mass density (318.15 K, m1 = 0.1199): 997.26 ± 6 kg/m3; mass density (318.15 K, m1 = 0.14): 998.44 ± 6 kg/m3; mass density (318.15 K, m1 = 0.16): 999.6 ± 6 kg/m3

From the NIST ThermoML archive (doi:10.1016/j.jct.2010.11.017)
